Laboratory results reported in patent US9389219B2, “Methods for screening inhibitors of tumor associated protein aggregation” (Vrije Universiteit Brussel, priority 2011, dated 2016).
Entries after “also recorded” stand apart in the source; their conditions may differ. Where two headings read alike, the source gives them in different places. Where a SMILES comes first, the peptide text is derived from it. The star is where a group is joined. Cbz = O=C(OCc1ccccc1)*

What was measured:
Type in all cases: cell-based, human
mutant p53 = test: BN-PAGE of p53 mutants over-expressed in SaOS-2 cells with MG-132; settings: I254R double mutants
Procedure: SaOS-2 or Hela cells were rinsed with ice-cold 20 mM Tris-HCl, 150 mM NaCl, pH 7.4 (TBS) and lysed with 18 mM 3-[(3-cholamidopropyl) dimethylammonio]-1-propanesulfonic acid (CHAPS) in TBS with DNase and protease inhibitors for 30 minutes at 21° C. or on ice, respectively. Whole-cell lysate was fractionated by both SDS-PAGE (NuPAGE system, Invitrogen) and Blue-Native PAGE (NativePAGE system, Invitrogen) following the product manuals. For SDS-PAGE, sample was denatured at 95° C. for 10 minutes in the presence of 2% sodium dodecyl sulfate (SDS) and then fractionated by 10% Bis-Tris gels in MES-SDS running buffer (0.1% SDS, 50 mM MES, and 50 mM Tris-Base). For Blue-Native PAGE, cell lysate was added with 20% glycerol and 5 mM Coomassie G-250 before loading onto 3-12% Novex Bis-Tris gradient gels. […] After three times of rinsing with TBS containing 0.1% TWEEN® 20 (TBST), the membrane was stained with horseradish peroxidase (HRP)-conjugated goat anti-mouse IgG (Promega) and visualized with electrochemical luminescence (ECL) system. […]
In the degradation stability test, protein synthesis was blocked by 60 μg/mL cycloheximide 24 hours after transfection, and cells were lysed 0, 3, 6, 12, 24 and 48 hours after the addition of cycloheximide. […] Cells were analyzed by immunofluorescence after 24 hours.

WT p53 in U2OS cells [1] = test: Native page analysis of p53 in treated U2OS cells
WT p53 in U2OS cells [2] = test: Immunofluorescent staining for p53 inclusions, InCell Analyzer 2000; settings: >1000 cells/condition
Description: It is becoming increasingly evident that resistance is also seen in cancers harboring wild-type p53, which might be explained by a change of conformation of wt p53 into a “mutant configuration.”^76 Cell lines harboring wt p53 were used and enhanced the expression using previously described chemotherapeutic agents. […] When performing immunofluorescent staining for p53 in U2OS cells, increased accumulation of non-soluble, inclusions of p53 in the cytoplasm was subsequently observed.

WT p53 in U2OS cells [3] = test: Western blot of p53 in U2OS cells treated with chemotherapeutic agents

Structure (SMILES)	proteasomal degradation of mutant p53 (mutant p53)	p53 high molecular-weight species (native page) (WT p53 in U2OS cells [1])	increase in cytoplasmic aggregates of p53 (WT p53 in U2OS cells [2])	p53 expression level (Western blot) (WT p53 in U2OS cells [3])	p53 expression level (Western blot) (WT p53 in U2OS cells [3]; listed as Cisplatin)
CC(C)C[C@@H](C=O)NC(=O)[C@H](CC(C)C)NC(=O)[C@H](CC(C)C)NC(=O)OCc1ccccc1 [MG132] (Cbz-Leu-Leu-Leu-aldehyde)	inhibited proteasomal degradation of mutant p53	smear was comparable			
N.N.[Cl][Pt][Cl] [cisplatin]		part of p53 ran as a high molecular weight smear; also recorded: high molecular-weight species of p53	greater than three-fold increase	started to accumulate WT p53	increased expression levels of p53
